Results on 19 molecules are retold here after patent US12655125B2 (SIRONAX LTD., priority 2020, dated 2026).

Each structure is given as a SMILES string.

In one test the test system is HT-29 cells. Description: HT29 Cells 0FBS Assay In Vitro (TNF-α/SMAC mimetic/zVAD-FMK induced necroptosis, CellTiter-Glo cell viability). It counts as cell-based. Particulars: Homo sapiens; HT-29 cells, FBS free medium, TNF-α (10 ng/ml), SMAC mimetic (6 uM), zVAD-FMK (10 μM), 20 hours; geometric mean EC50; read-out: Cell activity (EC50) of Compounds 1-116. The source says:
Protocol for HT29 Cells 0FBS Assay In Vitro
• Cell line: HT-29 (ATCC® HTB-38™) • Culture medium: McCOY's 5 A, Gibco, Cat No. 16600-082 • FBS, Gibco, Cat No. 10099-141C • Trypsin: Gibco, Cat No. 25200-056 • DMSO: Sigma, Cat No. 67-68-5, 1 L • Assay plate: Corning #3903 • Compound dilution plate: Corning #3357 • Inducers: TNFα, GenScript, Cat No. ZO1001-50, • SmacM, Cat. No., HY-15989, MedChemExpress (MCE) • Z_VAD FMK, TargetMol, T6013 • Cell Titer-Glo® Luminescent Cell Viability Assay Kit: Promega, Cat No. G7573 • EnVision: PerkinElmer, 2105-0010 2. Cell Seeding of HT-29 Cells • 1) HT-29 cells were checked every day to make sure they are healthy and growing as expected. They were split sub-culturing when were approximately 80% confluent. • 2) First pre-warm the culture medium of McCOY's 5 A medium (Gibco, Cat No. 16600-082) with 10% FBS (Gibco, Cat No. 10099-141C) in 37° C. water bath for at least 30 min. • 3) Growing cells to desired level of confluency 80% in a T75 flask, aspirate the medium, and wash with warm PBS two times. • 4) Add 2-3 ml fresh warm trypsin (Gibco, Cat No. 25200-056) solution. Transfer the flask to a 37° C. incubator. • 5) After 5 minutes, tap the side of the flask, and examine the flask under a microscope for lifting. If necessary, return the cells to the incubator for an additional 5-10 minutes, with occasional tapping, until lifting is complete. • 6) Quickly neutralize the trypsin reaction by adding 6-9 ml cell culture medium, then transfer the cells to sterile 15 ml conical tubes. Pellet the cells by centrifugation at 300×g for 7 minutes, then decant the supernatant. • 7) Resuspend the cells in fresh cell culture medium. Do cell counting with hemocytometer. • 8) Seed 100 μl of 5,000 cells into each well of the sterile 96-well cell culture plate (Corning 3903) and culture overnight at 37° C. with 5% C02. 3. Compounds Titration and Treatment of HT-29 Cells • 1) All batches of compounds (CPDs) (e.g., compound 1-281) were dissolved in DMSO (Dimethyl sulfoxide) as 20 mM stock solution. • 2) Take 3 ul 20 mM stock solution of CPDs to 27 ul DMSO and mix well, continue the titration ratio of 1:3 (20 ul CPDs+40 ul DMSO), e.g., to give solutions of CPDS at 6.6 mM, 2.2 mM, etc., till the 10 points end. • 3) Take out assay plates with HT-29 cells from incubator, remove all culture medium then wash 1 time with 1×PBS, and change fresh McCOY's 5 A medium of FBS free with a cocktail of TNF-α (10 ng/ml), the SMAC mimetic (6 uM) and zVAD-FMK (10 μM) to stimulate the HT-29 cells to increase pRIPK1 levels and necroptosis. • 4) Add 0.5 μL of the diluted compound to the corresponding 96-well assay plates. • 5) Incubate the assay plates for 20 hours at 37° C. with 5% C02. 4. Performing Cell Viability Detection of HT-29 Cells after Treated with Compounds • 1) The CellTiter-Glo® Luminescent Cell Viability Assay was employed to detect the ATP levels of viable HT-29 cells. • 2) Equilibrate the CellTiter-Glo® buffer and the lyophilized substrate to room temperature prior to use. • 3) Resuspend the CellTiter-Glo® substrate with CellTiter-Glo® buffer, mix by gently vortexing to obtain a homogeneous solution. • 4) Pipette 20 μl the enzyme/substrate mixture by multi-channel pipette into the 96-well assay plates from step 5) under the Compounds titration and treatment stage. • 5) Place the plates on an orbital shaker and mix the contents for 3 minutes to induce cell lysis. • 6) Then allow the plates to incubate at room temperature for 10 minutes to stabilize luminescent signal. • 7) Read and record luminescence signal with EnVision. • 8) The geometric mean EC50 of the compounds were calculated from points response dose with duplicate. In Tables 2 and 4, activity is provided as follows: +++=0.1 nM≤EC50<100 nM; ++=100 nM≤EC50<1000 nM; +=1000 nM≤EC50<10000 nM.
In general, EC50 refers to the midpoint of the concentration-response curve. `Cn1nccc1-c1ccc(F)c(OC2CN(C(=O)N3N=CC[C@H]3c3cc(F)cc(F)c3)C2)n1` (stereo in doubt) [compound 1, (5-(3,5-difluorophenyl)-4,5-dihydro-1H-pyrazol-1-yl)(3-((3-fluoro-6-(1-methyl-1H-pyrazol-5-yl)pyridin-2-yl)oxy)azetidin-1-yl)methanone]: the 50% effective concentration (EC50) fell in the range of 0.1 to 100 nM. Regarding `Cn1nccc1-c1ncc(F)c(OC2CN(C(=O)N3N=CC[C@H]3c3cc(F)cc(F)c3)C2)n1` [compound 2, (S)-(5-(3,5-difluorophenyl)-4,5-dihydro-1H-pyrazol-1-yl)(3-((5-fluoro-2-(1-methyl-1H-pyrazol-5-yl)pyrimidin-4-yl)oxy)azetidin-1-yl)methanone], the EC50 is 0.1 to 100 nM.

With `Cn1nccc1-c1cc(OC2CN(C(=O)N3N=CC[C@H]3c3cc(F)cc(F)c3)C2)c(F)cn1` [compound 3, (S)-(5-(3,5-difluorophenyl)-4,5-dihydro-1H-pyrazol-1-yl)(3-((5-fluoro-2-(1-methyl-1H-pyrazol-5-yl)pyridin-4-yl)oxy)azetidin-1-yl)methanone], the concentration giving a half-maximal response (EC50) lay within 0.1 to 100 nM. Still for that read-out and setting: as for `CCn1nccc1-c1cc(OC2CN(C(=O)N3N=CC[C@H]3c3cc(F)cc(F)c3)C2)c(F)cn1` [compound 4, (S)-(5-(3,5-difluorophenyl)-4,5-dihydro-1H-pyrazol-1-yl)(3-((2-(1-ethyl-1H-pyrazol-5-yl)-5-fluoropyridin-4-yl)oxy)azetidin-1-yl)methanone], the figure is 0.1 to 100 nM; as for `Cn1ccnc1-c1ccc(F)c(OC2CN(C(=O)N3N=CC[C@H]3c3cc(F)cc(F)c3)C2)n1` [compound 5, (S)-(5-(3,5-difluorophenyl)-4,5-dihydro-1H-pyrazol-1-yl)(3-((3-fluoro-6-(1-methyl-1H-imidazol-2-yl)pyridin-2-yl)oxy)azetidin-1-yl)methanone], 0.1 to 100 nM. Take `Cn1cncc1-c1ccc(F)c(OC2CN(C(=O)N3N=CC[C@H]3c3cc(F)cc(F)c3)C2)n1` [compound 6, (S)-(5-(3,5-difluorophenyl)-4,5-dihydro-1H-pyrazol-1-yl)(3-((3-fluoro-6-(1-methyl-1H-imidazol-5-yl)pyridin-2-yl)oxy)azetidin-1-yl)methanone]: the concentration for a half-maximal effect (EC50) lay in the range of 0.1 to 100 nM. For the molecule `Cn1cncc1-c1cc(OC2CN(C(=O)N3N=CC[C@H]3c3cc(F)cc(F)c3)C2)c(F)cn1` [compound 7, (S)-(5-(3,5-difluorophenyl)-4,5-dihydro-1H-pyrazol-1-yl)(3-((5-fluoro-2-(1-methyl-1H-imidazol-5-yl)pyridin-4-yl)oxy)azetidin-1-yl)methanone], the 50% effective concentration (EC50) is 0.1 to 100 nM. The same measure, in the same setting: for `Cn1cncc1-c1ncc(F)c(OC2CN(C(=O)N3N=CC[C@H]3c3cc(F)cc(F)c3)C2)n1` [compound 8, (S)-(5-(3,5-difluorophenyl)-4,5-dihydro-1H-pyrazol-1-yl)(3-((5-fluoro-2-(1-methyl-1H-imidazol-5-yl)pyrimidin-4-yl)oxy)azetidin-1-yl)methanone] the value was 0.1 to 100 nM; for `Cc1ncsc1-c1ncc(F)c(OC2CN(C(=O)N3N=CC[C@H]3c3cc(F)cc(F)c3)C2)n1` [compound 9, (S)-(5-(3,5-difluorophenyl)-4,5-dihydro-1H-pyrazol-1-yl)(3-((5-fluoro-2-(4-methylthiazol-5-yl)pyrimidin-4-yl)oxy)azetidin-1-yl)methanone], 0.1 to 100 nM; for `Cc1ncsc1-c1ccc(F)c(OC2CN(C(=O)N3N=CC[C@H]3c3cc(F)cc(F)c3)C2)n1` [compound 10, (S)-(5-(3,5-difluorophenyl)-4,5-dihydro-1H-pyrazol-1-yl)(3-((3-fluoro-6-(4-methylthiazol-5-yl)pyridin-2-yl)oxy)azetidin-1-yl)methanone], 0.1 to 100 nM. For the molecule `Cc1ncsc1-c1cc(OC2CN(C(=O)N3N=CC[C@H]3c3cc(F)cc(F)c3)C2)c(F)cn1` [compound 11, (S)-(5-(3,5-difluorophenyl)-4,5-dihydro-1H-pyrazol-1-yl)(3-((5-fluoro-2-(4-methylthiazol-5-yl)pyridin-4-yl)oxy)azetidin-1-yl)methanone], the EC50 lay in the range of 0.1 to 100 nM. In the case of `Cc1scnc1-c1ncc(F)c(OC2CN(C(=O)N3N=CC[C@H]3c3cc(F)cc(F)c3)C2)n1` [compound 12, (S)-(5-(3,5-difluorophenyl)-4,5-dihydro-1H-pyrazol-1-yl)(3-((5-fluoro-2-(5-methylthiazol-4-yl)pyrimidin-4-yl)oxy)azetidin-1-yl)methanone], the EC50 is 0.1 to 100 nM. On the same count and under the same terms, for `Cc1scnc1-c1ccc(F)c(OC2CN(C(=O)N3N=CC[C@H]3c3cc(F)cc(F)c3)C2)n1` [compound 13, (S)-(5-(3,5-difluorophenyl)-4,5-dihydro-1H-pyrazol-1-yl)(3-((3-fluoro-6-(5-methylthiazol-4-yl)pyridin-2-yl)oxy)azetidin-1-yl)methanone] the value was 0.1 to 100 nM; for `Cc1scnc1-c1cc(OC2CN(C(=O)N3N=CC[C@H]3c3cc(F)cc(F)c3)C2)c(F)cn1` [compound 14, (S)-(5-(3,5-difluorophenyl)-4,5-dihydro-1H-pyrazol-1-yl)(3-((5-fluoro-2-(5-methylthiazol-4-yl)pyridin-4-yl)oxy)azetidin-1-yl)methanone], 0.1 to 100 nM. Same read-out and setting: as for `Cc1nscc1-c1ncc(F)c(OC2CN(C(=O)N3N=CC[C@H]3c3cc(F)cc(F)c3)C2)n1` [compound 15, (S)-(5-(3,5-difluorophenyl)-4,5-dihydro-1H-pyrazol-1-yl)(3-((5-fluoro-2-(3-methylisothiazol-4-yl)pyrimidin-4-yl)oxy)azetidin-1-yl)methanone], the figure is 0.1 to 100 nM; as for `Cc1nscc1-c1ccc(F)c(OC2CN(C(=O)N3N=CC[C@H]3c3cc(F)cc(F)c3)C2)n1` [compound 16, (S)-(5-(3,5-difluorophenyl)-4,5-dihydro-1H-pyrazol-1-yl)(3-((3-fluoro-6-(3-methylisothiazol-4-yl)pyridin-2-yl)oxy)azetidin-1-yl)methanone], 0.1 to 100 nM. On to `Cc1nscc1-c1cc(OC2CN(C(=O)N3N=CC[C@H]3c3cc(F)cc(F)c3)C2)c(F)cn1` [compound 17, (S)-(5-(3,5-difluorophenyl)-4,5-dihydro-1H-pyrazol-1-yl)(3-((5-fluoro-2-(3-methylisothiazol-4-yl)pyridin-4-yl)oxy)azetidin-1-yl)methanone], for which the EC50 lay in the range of 0.1 to 100 nM. With `Cc1csnc1-c1ncc(F)c(OC2CN(C(=O)N3N=CC[C@H]3c3cc(F)cc(F)c3)C2)n1` [compound 18, (S)-(5-(3,5-difluorophenyl)-4,5-dihydro-1H-pyrazol-1-yl)(3-((5-fluoro-2-(4-methylisothiazol-3-yl)pyrimidin-4-yl)oxy)azetidin-1-yl)methanone], the EC50 lay within 0.1 to 100 nM.

Still in this test, the particulars now being: Homo sapiens; HT-29 cells, FBS free medium, TNF-α (10 ng/ml), SMAC mimetic (6 uM), zVAD-FMK (10 μM), 20 hours; geometric mean EC50; read-out: Cell activity (EC50) of Compounds 117-281.
Take `Cc1c([S+](C)[O-])nn(C)c1-c1cc(OC2CN(C(=O)N3N=CC[C@H]3c3cc(F)cc(F)c3)C2)c(F)cn1` (stereo in doubt) [compound 178, (5-(3,5-difluorophenyl)-4,5-dihydro-1H-pyrazol-1-yl)(3-((2-(1,4-dimethyl-3-(methylsulfinyl)-1H-pyrazol-5-yl)-5-fluoropyridin-4-yl)oxy)azetidin-1-yl)methanone]: the concentration giving a half-maximal response (EC50) lay within 0.1 to 100 nM.
